In ChEMBL document CHEMBL1122435, “Pyrrolopyrimidine nucleosides. 18. Synthesis and chemotherapeutic activity of 4-amino-7-(3-deoxy-beta-D-ribofuranosyl)pyrrolo[2,3-d] pyrimidine-5-carboxamide (3'-deoxysangivamycin) and 4-amino-7-(2-deoxy-beta-D-ribofuranosyl)pyrrolo[2,3-d] pyrimidine-5-carboxamide (2'-deoxysangivamycin)” (1983) one finds ILS and Toxicity data, which are given here for four compounds.

Structures are written as SMILES.

Test [1] relates to L1210. Nature of the test: Increase in life span for drug treated L1210-bearing mice at the dose of 100 mg/kg upon intraperitoneal administration. The test is classed as functional. The conditions noted are these: Mus musculus, L1210, ip.
For test [2], the system named is L1210. Description: Occurrence of drug-induced shortening of life span resulting from treatment at 100 mg/kg dose in L1210-bearing mice; y=yes. The test is classed as functional, organism-based. Particulars: Mus musculus. Also on record: dose 100 mg/kg.
Test [3] relates to L1210. Nature of the test: Occurrence of drug-induced shortening of life span resulting from treatment at 0.25 mg/kg dose in L1210-bearing mice; y=yes. The test is classed as functional, organism-based. Also on record: dose 0.25 mg/kg. The conditions noted are these: Mus musculus.
Test [4] concerns L1210. Nature of the test: Increase in life span for drug treated L1210-bearing mice at the dose of 0.25 mg/kg upon intraperitoneal administration. The test is classed as functional. Particulars: Mus musculus, L1210, ip.
Test [5] relates to L1210. Nature of the test: Increase in life span for drug treated L1210-bearing mice at the dose of 160 mg/kg upon intraperitoneal administration. The format is functional. Particulars: Mus musculus, L1210, ip.
Test [6] has as its system L1210. Description: Increase in life span for drug treated L1210-bearing mice at the dose of 128 mg/kg upon intraperitoneal administration. The test is classed as functional. The conditions noted are these: Mus musculus, L1210, ip.

By ILS is commonly meant the gain in survival time of treated over control animals, in per cent. In the case of `C[C@H]1OC(n2cc(C(N)=O)c3c(N)ncnc32)[C@H](O)[C@@H]1O` (stereo partly specified), the increase in lifespan (ILS) at 100 mg/kg in the test with L1210 [1] was 5%. Further, the Toxicity entry in the test with L1210 [2] was “Yes”. Take `NC(=O)c1cn([C@@H]2O[C@H](CO)[C@@H](O)[C@H]2O)c2ncnc(N)c12` [SANGIVAMYCIN]: the Toxicity entry in the test on L1210 [3] was “Yes”. The ILS at 0.25 mg/kg in the test on L1210 [4] is 37%. `NC(=O)c1cn([C@H]2C[C@H](O)[C@@H](CO)O2)c2ncnc(N)c12` gave an ILS at 160 mg/kg in the test with L1210 [5] of 4%. Take `NC(=O)c1cn(C2OC(CO)CC2O)c2ncnc(N)c12` (stereo unspecified): in the test on L1210 [6], the ILS at 128 mg/kg is 128%.
